Reference: patent US10391201B2, “Gene therapy” (Ospedale San Raffaele S.r.l., priority 2014, dated 2019)

Experiments:
CB-derived CD34+ cells [1] = assay: LV replication intermediates (late-RT, 2LTR circles, integrated copies) in CB-derived CD34+ cells; assay type: cell-based, human
Procedure: (§1) CsA and rapamycin act on distinct steps on the LV life cycle. […] The LV genome fate was tracked by measuring late-RT product (A) and 2LTR circles (B) 24 hours after transduction and integrated proviral copies 2 weeks after transduction (C). Data represent the mean±SEM of four independent experiments expressed as fold versus DMSO WT (A,B) or as absolute copies/cell (C). D. IDLV transduction efficiency was measured 3 days after transduction by FACS and by measuring the retrotranscribed LV DNA products by PCR. Data are the mean±SEM of three independent experiments. P values are for one-way with Bonferonni's multiple comparison. *P<0.05, **P<0.01, ****P<0.0001.
as §1, with “FACS (left panel)” for “FACS”, “PCR (right panel).” for “PCR.”, “P values are for one-way with Bonferonni's multiple comparison. *P<0.05, **P<0.01, ****P<0.0001.” left out
To analyse viral replication intermediates, transduced cells were washed and resuspended in Monini lysis buffer (0.1% polyoxyethylene 10 lauryl ether (Sigma), 0.1 mg/mL proteinase K (Promega)) (25 μL per 1×10^5 cells), incubated at 65° C. for 2 h and heat inactivated at 94° C. for 15 min (Monini, P. et al. (1999) Blood 93: 4044-58). […] Late-RT and 2LTR circles were measured by semi-quantitative Taqman assay with primers described below and normalised using the human TERT gene. Results are expressed as fold versus the DMSO control, as described above.
DNA from cell cultures was extracted using a Maxwell 16 instrument (Promega) or Blood & Cell Culture DNA Micro Kit (Qiagen). […] Vector copy numbers and replication intermediates were normalised to genomic DNA content, which was assessed using the human TERT gene. […]

[2] = system: Human cord blood-derived CD34+ cells transplanted in NSG mice; assay: Transplantation of transduced human HSPC in NSG mice; assay type: in vivo, NOD-SCID-IL2Rg−/− (NSG) mice
Procedure: NOD-SCID-IL2Rg−/− (NSG) mice were purchased from Jackson laboratory. All animal procedures were performed according to protocols approved by the Animal Care and Use Committee of the Ospedale San Raffaele (IACUC 661) and communicated to the Ministry of Health and local authorities according to Italian law. […] After transduction, 1.3×10^5 cells were infused into the tail vein of sublethally irradiated 10-week-old NSG mice (radiation dose: 200 cGy for mice weighing 18-25 g and 220 cGy for mice above 25 g of weight). Transduced and untransduced cells were also cultured in vitro for 14 days for further analysis. In vitro cultured cells and BM cells isolated from transplanted mice at the time of sacrifice were then used to quantify the VCN by qPCR.
For each mouse, 250 μL of peripheral blood were added to 15 μL of PBS containing 45 mg/mL EDTA. For immunostaining, a known volume of whole blood (100 μL) was first incubated with anti-human FcγIII/II receptor (Cd16/Cd32) blocking antibodies for 15 min at 4° C. and then incubated in the presence of monoclonal antibodies (for antibodies, see Table 1) for 20 min at 4° C. Erythrocytes were removed by lysis with the TQ-Prep workstation (Beckman-Coulter) in the presence of an equal volume of FBS (100 μL) to protect white blood cells.
BM cells were obtained by flushing the femurs in PBS 2% FBS solution. Cells (1×10^6 cells) were washed, resuspended in 100 μL of PBS containing 2% FBS, and incubated with anti-human receptor (Cd16/Cd32) blocking antibodies for 15 min at 4° C. Staining was then performed with monoclonal antibodies (for antibodies, see Table 1) for 20 min at 4° C. Cells were washed and finally resuspended in PBS containing 2% FBS.
Spleens were first smashed and the resulting cell suspension was passed through 40 μm nylon filter and washed in cold phosphate buffered saline (PBS) containing 2 mM EDTA and 0.5% bovine serum albumin (BSA). Cells were incubated with anti-human receptor (Cd16/Cd32) blocking antibodies for 15 min at 4° C. and then stained with anti-human monoclonal antibodies (for antibodies, see Table 1) for 20 min at 4° C. Cells were finally washed and resuspended in PBS containing 2% FBS.

CB-derived CD34+ cells [3] = assay: γ-retroviral SINRV-GFP transduction of CB-derived CD34+ cells; assay type: cell-based, human; conditions: CB-derived HSPC; MOI of 10 (FIG. 24)

How did the “2-long-terminal-repeat (2LTR) circles vs DMSO” value (CB-derived CD34+ cells [1]; 10 μg/ml rapamycin, 24 hours after transduction) turn out when CO[C@H]1C[C@@H]2CC[C@@H](C)[C@@](O)(O2)C(=O)C(=O)N2CCCC[C@H]2C(=O)O[C@H]([C@H](C)C[C@@H]2CC[C@@H](O)[C@H](OC)C2)CC(=O)[C@H](C)/C=C(\C)[C@@H](O)[C@@H](OC)C(=O)[C@H](C)C[C@H](C)/C=C/C=C/C=C/1C [rapamycin, Rapamycin] was run?
The value was “consequent increase”.

What about the “late-RT products vs DMSO, independently of the CA” value (CB-derived CD34+ cells [1]; WT, A88T or A92E LV, 10 μg/ml rapamycin, 24 hours after transduction) of the same compound?
The value was “two to threefold increase”.

What about the “integrated vector (proviral) copies vs DMSO” value (CB-derived CD34+ cells [1]; all vectors, 2 weeks after transduction) of the same compound?
Its value is “increase”.

And the “overall percentage of GFP+ cells in the spleen” value ([2]; 20 weeks post-transplant (FIG. 22H), DMSO 49.0±5)?
The value was 80.8±1%.

And the “GFP+/hCD45+ cells in peripheral blood” value ([2]; NSG mice, 11 weeks after transplant (FIG. 22C), DMSO 48±6)?
Its value is 78±2%.

What about the “VCN in the BM cells” value ([2]; NSG mice, 20 weeks post-transplant, DMSO 0.9±0.2) of the same compound?
Its value is 3.6±0.4.

What about the “levels of engraftment in the BM with respect to controls (in words)” value ([2]; NSG mice, 20 weeks post-transplant, p<0.047 v. DMSO) of the same compound?
The value was “modest but statistically significant increase”.

And the “percentage of GFP+ cells with γ-retroviral SINRV” value (CB-derived CD34+ cells [3])?
Its value is “neither compound was able to significantly increase”.
